{"source": "patent US8722052B2", "about": "“Vaccinia virus protein A46 peptide and use thereof” (priority 2008, dated 2014)", "key": {"TLR3": {"target": "T1, TLR3 (Homo sapiens, UniProt O15455)", "T1 construct": "expressed in transfected cells", "assay": "poly(I:C)-induced NFκB / ISRE luciferase reporter assay in HEK293_TLR3 cells", "type": "cell-based", "details": "peptide 1, 5 or 25 μM, 25 μg/ml Poly(I:C), 6 h", "method": "FIGS. 11A and B are bar charts showing the effect of A464 and scrambled A464 (ConA464) on poly(I:C)-induced TLR3 signalling in HEK293 cells. HEK293_TLR3 cells were seeded in 96 well plates (1.5×10^5 cells/ml) 24 hours before transfection with the plasmid DNA. Cells were transfected with 60 ng of either ISRE-Luciferase (A) or NFκB-Luciferase (B) and 20 ng of TK-Renilla reporter gene plasmids. The total volume of plasmid DNA transfected into the cells was made up to 230 ng by adding pcDNA.\nScrambled A464 (ConA464) (SEQ ID NO. 32) and A464 (SEQ ID NO. 20) peptides were added to the cells at a concentration of 2, 5 or 10 μM the next day and cells were stimulated with 25 μg/ml poly(I:C) 1 hour after treatment with the peptide. Cells were harvested and reporter gene assays performed 6 hr after stimulation with the agonist. No peptides were added to the control wells (black bars). Data is representative of at least three experiments each performed in triplicate. Data are expressed as mean fold induction±s.d. relative to control levels;\n(§1) FIGS. 20A and B are bar charts showing the effect of shortened A464 peptides with deletions of N- and C-terminal amino acids on TLR4- and TLR3-induced NFκB activation in HEK293 cells. HEK293_TLR4 (A) and HEK293_TLR3 (B) cells were seeded in 96 well plates (1.5×10^5 cells/ml) 24 hours before transfection with the plasmid DNA. Cells were transfected with 60 ng NFκB-Luciferase and 20 ng of TK-Renilla reporter genes, as in FIG. 11. A464N-2 (SEQ ID NO. 41) and A464C-3 (SEQ ID NO. 42) peptides were added to the cells at a concentration of 1, 5 or 25 μM the next day and cells were stimulated with either 10 ng/ml LPS (A) or 25 μg/ml Poly(I:C) (B) 1 hour after treatment with peptides. Cells were harvested and assayed for NFκB activation by reporter gene assay 6 hours after stimulation with the agonists. No peptides were added to the control wells (black bars). Data is representative of three experiments each performed in triplicate and is expressed as mean fold induction±s.d. relative to control levels;\nHEK293 cells were transfected using GeneJuice® a proprietary non-toxic transfection reagent. 200 μl/well cells at a density of 1×10^5 cells/ml were seeded the day before transfection. 0.8 μl of GeneJuice was mixed with 9.2 μl of serum-free DMEM (SFM) per transfection and incubated for 5 min at room temperature before adding the appropriate amount of the plasmid DNA. The GeneJuice/SFM/DNA mixture was then incubated at room temperature for 15 min before adding to the cells. 10 μl per well of the GeneJuice/SMF/DNA mixture was added to the cells in triplicate and the cells were allowed to recover for 18-20 hours before stimulation. […]"}, "TLR4 [1]": {"system": "TLR4", "sequence (O00206 24-839)": "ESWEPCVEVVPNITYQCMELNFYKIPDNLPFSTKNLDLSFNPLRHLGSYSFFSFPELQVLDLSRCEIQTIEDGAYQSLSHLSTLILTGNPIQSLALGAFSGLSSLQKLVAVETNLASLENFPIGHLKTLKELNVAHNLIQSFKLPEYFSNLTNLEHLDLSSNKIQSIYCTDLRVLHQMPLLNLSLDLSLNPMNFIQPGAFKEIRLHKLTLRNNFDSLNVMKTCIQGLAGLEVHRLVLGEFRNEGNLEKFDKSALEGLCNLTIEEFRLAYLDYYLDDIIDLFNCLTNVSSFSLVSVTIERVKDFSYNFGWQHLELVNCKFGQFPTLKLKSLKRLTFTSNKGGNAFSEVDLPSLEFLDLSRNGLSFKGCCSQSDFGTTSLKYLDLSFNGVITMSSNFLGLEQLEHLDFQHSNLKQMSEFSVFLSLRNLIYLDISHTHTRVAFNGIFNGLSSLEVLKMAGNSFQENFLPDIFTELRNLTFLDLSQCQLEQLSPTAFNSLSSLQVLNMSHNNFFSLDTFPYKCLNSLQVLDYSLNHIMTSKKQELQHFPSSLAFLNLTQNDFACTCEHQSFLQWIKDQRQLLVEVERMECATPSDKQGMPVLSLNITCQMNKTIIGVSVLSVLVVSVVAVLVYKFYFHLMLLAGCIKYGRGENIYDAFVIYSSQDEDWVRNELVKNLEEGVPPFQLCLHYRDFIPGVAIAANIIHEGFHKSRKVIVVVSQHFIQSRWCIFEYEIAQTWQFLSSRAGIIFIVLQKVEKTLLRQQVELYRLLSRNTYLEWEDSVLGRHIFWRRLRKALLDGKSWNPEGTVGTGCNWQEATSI", "sequence (Q9Y6Y9 17-160 partner limits assumed)": "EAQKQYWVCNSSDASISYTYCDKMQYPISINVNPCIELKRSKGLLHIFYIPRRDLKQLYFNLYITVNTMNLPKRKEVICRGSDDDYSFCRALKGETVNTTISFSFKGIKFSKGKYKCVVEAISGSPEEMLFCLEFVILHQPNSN", "assay": "LPS-induced NFκB reporter assay in HEK293_TLR4 cells", "type": "cell-based, human", "details": "peptide 1, 5 or 25 μM 1 h before 10 ng/ml LPS, 6 h", "method": "as §1\nFIGS. 24A and B are bar charts showing the effect of A464 on ligand-independent TLR4 signalling in HEK293 cells. HEK293_TLR4 cells were seeded in 96 well plate (1.5×10^5 cells/ml) 24 hours before transfection with NFκB-luciferase and TK-Renilla reporter gene plasmids. NFκB activation was stimulated by transfecting either 50 or 100 ng of CD4/TLR4-encoding plasmid or by stimulating with 10 ng/ml LPS. The total amount of plasmid DNA transfected into the cells was made up to 230ng by adding pcDNA. A464 (SEQ ID NO. 20) was added to the cells at a concentration of 5 or 25 μM 2 hours (A) or 9 hours (B) after the transfection or LPS-stimulation. Cells were harvested and assayed for NFκB activation by reporter gene assay 24 hours post-transfection. No peptides were added to the control wells (black bars). Data is representative of two experiments, each performed in triplicate and is expressed as mean fold induction±s.d. relative to control levels;\nHEK293 cells were transfected using GeneJuice® a proprietary non-toxic transfection reagent. […]"}, "TLR4 [2]": {"system": "TLR4", "assay": "LPS-induced TNFα in PMA-differentiated U937 cells, ELISA", "type": "cell-based, human", "details": "peptide 5 or 20 μM 1 h before 100 ng/ml LPS, 24 h", "method": "FIGS. 3A and B are bar charts showing the effect of peptides derived from A46 on LPS-induced TNFα in human U937 cells. Cells were differentiated with 200 nM PMA and seeded in 96 well plates (2×10^5 cells/ml) 24 hours before treatment. A46 peptides were added to the cells at a concentration of 5 or 20 μM 1 hour before stimulating with 100 ng/ml LPS. Supernatants were collected 24 hours after stimulation and assayed for TNFα by ELISA. No peptides were added into the control wells (black bars). (A) peptides A461-A467 (SEQ ID NO. 17 to 23). (B) peptides A468-A4614 (SEQ ID NO. 24 to 30) (excluding A4612 SEQ ID NO. 28). Data is representative of at least two experiments each performed in triplicate and is expressed as mean±s.d;\nCytokine and chemokine production from cells or mouse serum was measured by ELISA using Duoset kits from R&D systems, according to the manufacturer's instructions.\nLPS is a component of a cell wall of Gram-negative bacteria which is recognised by a homodimer of TLR4 and signals to NFκB via both a MyD88- and TRIF-dependent pathway (O'Neill and Bowie, 2007). In order to examine the effect of the peptides on TLR4-dependent gene induction in human cells, the human monocytic lymphoma cell line U937 was used. U937 cells were differentiated into macrophages by treatment with 200 nM PMA for 24 hours before any further manipulations. […]"}, "PBMCs": {"system": "PBMCs", "assay": "MTT cell viability assay, PBMC", "type": "cell-based, human", "details": "peptide 1, 5 and 25 μM", "method": "FIGS. 13A and B are bar charts showing the effect of A467 and A464 on LPS-induced TNFα production and on cell viability in primary human cells. Peripheral blood mononuclear cells (PBMCs) were seeded in 96 well plates (1 ×10^6 cells/ml) 24 hours before treatment. A467 (SEQ ID NO. 23) and A464 (SEQ ID NO. 20) were added to the cells at 1, 5 and 25 μM 1 hour before stimulating with 10 ng/ml LPS. The peptides were added into the unstimulated control wells at 25 μM. Supernatants were collected 6 hours after stimulation and assayed for TNFα production by ELISA (A). The cells were assayed for viability by the MTT assay (B). No peptides were added to the control wells (black bars). Data is representative of at least three experiments each performed in triplicate and is expressed as mean±s.d;\nCell viability was measured by assessing mitochondrial function using an MTT (3-(4,5-Dimethylthiazol-2-yl)-2,5-diphenyltetrazolium bromide) assay. Cells were seeded into 96 well plates and treated with peptides and agonists as described above in relation to the Figs. Wells containing medium only served as a blank control. To terminate treatment of cells, medium was removed and the cells were washed once with PBS. […] MTT was then removed and 200 μl per well of dimethyl sulphoxide (DMSO) was added and cells incubated for 20 min at 37° C. in the dark, prior to absorbance being read at 595 nm on a spectrophotometer."}}, "note": "Ends that are not written are not given here."}
{"substance": "KYSFKLIL-9R (KYSFKLILRRRRRRRRR) [Peptide A464C-3]", "values": [{"measurement": "inhibition of Poly(I:C)-induced NFκB activation (TLR3) by shortened peptides", "setting": "TLR3", "value": "no inhibition of TLR3 signalling to NFκB up to 25 μM"}, {"measurement": "inhibition of LPS-induced NFκB activation by shortened peptides", "setting": "TLR4 [1]", "value": "inhibited LPS-induced NFκB activation completely at 1 μM"}]}
{"substance": "LILAEYIRHRNRRRRRRRRR [Peptide A465]", "values": [{"measurement": "inhibition of LPS (TLR4)-induced TNFα production", "setting": "TLR4 [2]", "value": "did not inhibit TLR4 responses"}]}
{"substance": "RNTISGNIYSARRRRRRRRR [Peptide A467]", "values": [{"measurement": "toxicity (MTT)", "setting": "PBMCs", "value": "not toxic"}]}
{"substance": "SFKLILAEY-9R (SFKLILAEYRRRRRRRRR) [Peptide A464N-2]", "values": [{"measurement": "inhibition of Poly(I:C)-induced NFκB activation (TLR3) by shortened peptides", "setting": "TLR3", "value": "no inhibition of TLR3 signalling to NFκB up to 25 μM"}, {"measurement": "inhibition of LPS-induced NFκB activation by shortened peptides", "setting": "TLR4 [1]", "value": "inhibited LPS-induced NFκB activation completely at 1 μM"}]}
